Measured values taken from the CheMixHub ionic liquid set.

Test: xn = mol fraction of the nth substance listed

CCCC[P+](CCCC)(CCCC)CCCC.F[B-](F)(F)F + C1CCOC1
298.15 K, 100 kPa
Conditions	viscosity [mPa·s]
x1 = 0.0008214	0.468
x1 = 0.001232	0.473
x1 = 0.001649	0.478
x1 = 0.002058	0.483
x1 = 0.002474	0.489
x1 = 0.002883	0.495

CCCC[P+](CCCC)(CCCC)CCCC.F[B-](F)(F)F + C1CCOC1 + C1COCO1
298.15 K, 100 kPa
Conditions	viscosity [mPa·s]
x1 = 0.0007279, x2 = 0.2549	0.563
x1 = 0.0007522, x2 = 0.5064	0.531
x1 = 0.0007834, x2 = 0.7544	0.499
x1 = 0.001095, x2 = 0.2548	0.569
x1 = 0.001131, x2 = 0.5062	0.537
x1 = 0.001182, x2 = 0.7541	0.505
x1 = 0.001455, x2 = 0.2547	0.575
x1 = 0.001511, x2 = 0.506	0.542
x1 = 0.001573, x2 = 0.7538	0.51
x1 = 0.001821, x2 = 0.2546	0.581
x1 = 0.001889, x2 = 0.5058	0.548
x1 = 0.001971, x2 = 0.7535	0.516
x1 = 0.00218, x2 = 0.2545	0.588
x1 = 0.002268, x2 = 0.5056	0.554
x1 = 0.002368, x2 = 0.7532	0.522
x1 = 0.002547, x2 = 0.2544	0.595
x1 = 0.002646, x2 = 0.5054	0.561
x1 = 0.002758, x2 = 0.7529	0.528

CCCC[P+](CCCC)(CCCC)CCCC.F[B-](F)(F)F + C1COCO1
298.15 K, 100 kPa
Conditions	viscosity [mPa·s]
x1 = 0.0007033	0.595
x1 = 0.001051	0.6
x1 = 0.001406	0.606
x1 = 0.001753	0.613
x1 = 0.002107	0.62
x1 = 0.002453	0.627

CCCC[n+]1ccccc1.N#C[N-]C#N + CC1COC(=O)O1
101 kPa
Conditions	electrical conductivity [S/m]	viscosity [mPa·s]
288.15 K, x1 = 0.1003	0.537	4.857
293.15 K, x1 = 0.4997	1.69	14.49
298.15 K, x1 = 0.3005	1.76	6.995
298.15 K, x1 = 0.7011	2.05	19.85
298.15 K, x1 = 0.7885	2.28	24.95
303.15 K, x1 = 0.3005	1.98	6.097
303.15 K, x1 = 0.6002	2.338	13.28
308.15 K, x1 = 0.1003	1.38	3.024
308.15 K, x1 = 0.3005	2.227	5.372
308.15 K, x1 = 0.7011	2.55	14.09
313.15 K, x1 = 0.1003	1.6	2.75
313.15 K, x1 = 0.3005	2.49	4.766
318.15 K, x1 = 0.1003	1.77	2.498
318.15 K, x1 = 0.7011	3.09	10.47
323.15 K, x1 = 0.197	2.44	3.04
323.15 K, x1 = 0.3005	3.038	3.842
323.15 K, x1 = 0.7011	3.432	9.16
323.15 K, x1 = 0.7885	3.732	10.85
328.15 K, x1 = 0.6002	3.724	6.707
328.15 K, x1 = 1	3.2	12.59
333.15 K, x1 = 0.197	2.94	2.58
333.15 K, x1 = 0.3005	3.66	3.172
333.15 K, x1 = 0.7011	4.16	7.185
333.15 K, x1 = 1	3.49	11.08
338.15 K, x1 = 0.197	3.17	2.394
343.15 K, x1 = 0.7011	4.98	5.796
343.15 K, x1 = 0.9008	5.122	7.641
348.15 K, x1 = 0.3005	4.732	2.474
348.15 K, x1 = 0.7011	5.416	5.253
353.15 K, x1 = 0.4003	5.33	2.965

CC[n+]1ccn(C)c1.N#C[S-] + CC1COC(=O)O1
101.3 kPa
Conditions	electrical conductivity [S/m]	viscosity [mPa·s]
293.15 K, x1 = 0.2045	2.09	5.834
293.15 K, x1 = 0.2984	2.24	7.631
298.15 K, x1 = 0.0989	1.68	3.689
298.15 K, x1 = 0.4	2.36	8.466
298.15 K, x1 = 0.599	2.15	12.93
298.15 K, x1 = 0.7045	2.06	15.47
313.15 K, x1 = 0.7045	2.76	10.1
318.15 K, x1 = 0.2045	3.18	2.991
318.15 K, x1 = 0.2984	3.43	3.817
318.15 K, x1 = 0.599	3.12	7.316
318.15 K, x1 = 0.7045	3.02	8.83
318.15 K, x1 = 0.8942	2.77	11.64
323.15 K, x1 = 0.2045	3.45	2.665
323.15 K, x1 = 0.499	3.49	5.278
323.15 K, x1 = 0.599	3.4	6.4
328.15 K, x1 = 0.499	3.77	4.608
328.15 K, x1 = 0.599	3.68	5.614
328.15 K, x1 = 0.796	3.45	7.7
328.15 K, x1 = 0.8942	3.31	8.9
333.15 K, x1 = 0.0989	3.33	1.702
338.15 K, x1 = 0.0989	3.601	–
338.18 K, x1 = 0.2984	–	2.283
343.15 K, x1 = 0.4	4.79	2.568
343.15 K, x1 = 0.499	4.66	3.183
343.15 K, x1 = 1	4.01	7.236
